{"source": "patent US9994862B2", "about": "“Rice resistant to HPPD and ACCase inhibiting herbicides” (priority 2011, dated 2018)", "key": {"unmutated line R0146": {"system": "unmutated line R0146", "assay": "Mesotrione tolerance trials / herbicide bioassay", "format": "in vivo, rice", "from_the_text": "Selection of material inheriting mesotrione tolerance is accomplished by a simple herbicide bioassay. A high rate of mesotrione (at least 420 gm ai/ha) is applied allowing differentiation of heterozygous individuals from homozygous individuals and the tolerance level of the […] line from the inherent tolerance level in the background of some types of rice. In one example a rate of 105 gm ai/ha is applied followed three weeks later by a second application of 630 gm ai/ha. In another example a rate of 420 gm ai/ha is applied in a single application. Yet another example entails applying the herbicide at a rate of 630 gm ai/ha. Herbicide applications are done at the three to four leaf stage of seedling growth. The ideal situation is to have also planted near or within the plants to be selected a set of plants from the original mutant mesotrione tolerant donor line ML0831266-03093, (FIG. 18A) a row of plants of the wild-type of the […] line, P1003 (FIG. 18B), and a row of the line involved as the other parent in the cross (FIG. 18C). These control lines allow easy differentiation for inheritance of the tolerance provided by the ML0831266-03093 mutant line through comparison of the response in the plants to be selected with the control lines. Only plants that live and are relatively healthy will have inherited and be homozygous for the tolerance level provided by the ML0831266-03093 mutant line (FIG. 18A).\nThe mutant line is planted in rows or alternatively whole plots are planted and rows of the unmutated line (P1003) and other types of rice or whole plots are planted. Mesotrione is applied pre-emergence or alternatively it is applied post-emergence at the three to four leaf stage of the rice plants. Various rates of mesotrione are applied pre-emergence, pre-emergence followed by post-emergent, or post-emergent with a single or sequential application. Post-emergent applications are applied at the 3-4 leaf stage of the rice.\nSeedlings of size 3 to 4 leaves are sprayed with mesotrione herbicide. In one set of 89 plants mesotrione is first applied at 105 gm ai/ha killing 23 plants. Both the mutant line control ML0831266-03093 and the unmutated line P1003 survived the herbicide application while the unmutated line R0146 was killed. The surviving plants including some additional plants making a total of 95 are then sprayed with another treatment of mesotrione at a rate of 630 gm ai/ha killing or injuring 67 while 28 survived. (FIG. 23) The surviving ratio of plants to those killed or injured fits a one quarter ratio with a chi squared value of 1.03, well within the expected for a single recessive gene. Another set of F2 individuals of size 78 individuals are sprayed with a single application of mesotrione herbicide at a rate of 420 gm ai/ha resulting in 26 plants surviving also fitting in the expected one quarter ratio for a single recessive gene with a chi square value of 2.88 (Table 2)."}, "line PL1214418M2-73009": {"system": "line PL1214418M2-73009", "assay": "Mesotrione trait tolerance trial", "format": "in vivo, rice", "experimental": "Two trials were conducted to measure recovery of tolerance to both ACCase and HPPD herbicides in the new line PL1214418M2-73009. Recovery of tolerance in the line combining the two traits will illustrate that the traits are heritable and can be used to produce new varieties and hybrids carrying herbicide resistance. These trials are important as often times it is difficult to recover complex QTLs for quantitative traits or in some cases a traits response is dependent upon the genetic background. In the first trail the lines resistance to mesotrione (HPPD herbicide) was evaluated by planting line PL1214418M2-73009, the HPPD resistant line ML0831266-03093 and wild-type rice line P1003 and R0146 in plots (5 feet×10 feet). […]\nDuring the breeding process to develop new lines (PL1214418M2-80048 and PL1214418M2-73009) with resistance/tolerance to HPPD and ACCase herbicides, two other lines were also investigated to determine the contribution of the HPPD tolerance mutation and the HPPD tolerance native gene. […] The tolerance effect of each gene was measured by growing the lines in single rows including the newly developed line PL1214418M2-73009 that carries both the HPPD tolerance from the mutation and the non-induced tolerance, the HPPD tolerant line ML0831266-0309, and the non-induced parent line P1003. […]"}}, "note": "Entries after “also recorded” stand apart in the source; their conditions may differ."}
{"smiles": "CS(=O)(=O)c1ccc(C(=O)C2C(=O)CCCC2=O)c([N+](=O)[O-])c1", "note": "[mesotrione]", "values": [{"measurement": "survival after mesotrione", "setting": "unmutated line R0146; low rate 105 gm ai/ha", "result": "killed"}, {"measurement": "response of the rice to mesotrione", "setting": "unmutated line R0146; one application at 105 gai/ha followed by a second application of 630 gai/ha", "result": "completely killed"}, {"measurement": "tolerance to mesotrione compared with the original HPPD tolerant line ML0831266-03093", "setting": "line PL1214418M2-73009; 0.5x to 4x of the labeled rate 210 gmai/ha", "result": "equivalent tolerance; also recorded: the same response"}, {"measurement": "tolerance to mesotrione", "setting": "line PL1214418M2-73009; in vivo", "result": "tolerance"}]}
